Like-named read-outs stand apart in the source and are kept apart here.
Legend:
[1] = biological target: T1, HCV NS5B RdRp genotype 1b (Hepatitis C virus genotype 1b, UniProt Q9WMX2); experiment: Standard HCV NS5B RdRp enzyme assay; assay type: biochemical
T1 construct: The protein was expressed with an 18 amino acid C-terminal truncation to enhance the solubility; made in house; host or cells: E. coli BL21(DE3), pET21a vector
Method in brief: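 Radiometric SPA measuring 3H-UMP incorporation on polyA/biotin-oligo-dT12 (6 nM/180 nM), 0.29 μM total UTP. Enzyme: NS5B 1b lacking last 18 residues, 28 nM final, 30° C for 60 min in 20 mM Hepes pH 7.5, 2.5 mM MgCl2, 2% DMSO. IC50 from seven-point curves.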

HCV replicon cells = experiment: HCV replicon FRET / luciferase assay (96-well plates); assay type: cell-based; conditions: Hepatitis C virus
Method in brief: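 Percent activity is background-subtracted signal relative to untreated cell wells, with background taken from maximal protease-inhibitor wells. Cytotoxicity is Alamar blue fluorescence relative to controls. Replicon inhibition was read by NS3 FRET peptide cleavage (340/490 nm) or luciferase.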

[2] = Table 1b, HCV NS5B RdRp genotype 1b, read-out: IC50
[3] = Table 1b, HCV replicon, read-out: EC50
[4] = Table 1a, HCV NS5B RdRp genotype 1b, read-out: IC50
[5] = Table 1a, HCV replicon, read-out: EC50
[6] = untitled table after Table 1b, HCV NS5B RdRp genotype 1b, read-out: IC50
[7] = untitled table after Table 1b, HCV replicon, values without asterisk, read-out: EC50

T1 sequence (Q9WMX2 2420-2992): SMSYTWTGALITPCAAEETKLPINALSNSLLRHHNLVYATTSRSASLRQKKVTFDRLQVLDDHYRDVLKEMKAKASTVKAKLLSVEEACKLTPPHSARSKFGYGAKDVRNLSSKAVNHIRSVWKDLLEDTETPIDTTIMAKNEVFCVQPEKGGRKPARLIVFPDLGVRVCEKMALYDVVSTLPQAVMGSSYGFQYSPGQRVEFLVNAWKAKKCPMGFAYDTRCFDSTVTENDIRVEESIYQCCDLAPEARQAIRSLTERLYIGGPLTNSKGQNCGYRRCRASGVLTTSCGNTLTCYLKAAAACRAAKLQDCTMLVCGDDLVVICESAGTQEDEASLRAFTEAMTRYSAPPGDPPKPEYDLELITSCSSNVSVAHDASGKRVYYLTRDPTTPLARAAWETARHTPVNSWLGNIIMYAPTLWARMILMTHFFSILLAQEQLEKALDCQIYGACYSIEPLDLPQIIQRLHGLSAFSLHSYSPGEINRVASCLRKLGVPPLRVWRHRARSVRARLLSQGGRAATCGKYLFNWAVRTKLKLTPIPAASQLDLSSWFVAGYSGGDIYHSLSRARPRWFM

Row | Compound | IC50 [1, 2] | EC50 (HCV replicon cells; [3]) | IC50 [1, 4] | EC50 (HCV replicon cells; [5]) | also measured
1 | CNC(=O)c1c(-c2ccc(F)cc2)oc2ccc(-c3ccc(-c4cccc(/C=C/C(=O)O)c4)c(C(=O)NCC(C)C)c3)cc12 | < 250 nM | 250 to 1000 nM |  |  | 
2 | CNC(=O)c1c(-c2ccc(F)cc2)oc2ccc(-c3cc(C(=O)NC4(c5ncccn5)CC4)ccc3C)c(F)c12 [drawing 587] | < 250 nM | < 250 nM |  |  | 
3 | CNC(=O)c1c(-c2ccc(F)cc2)oc2ccc(-c3cc(C(=O)NCC(C)C)ccc3OC)cc12 |  |  | < 250 nM | < 250 nM | 
4 | CNC(=O)c1c(-c2ccc(F)cc2)oc2ccc(-c3cc(C(=O)NC4(c5ccccn5)CC4)ccc3OCC(N)=O)cc12 | < 250 nM | < 250 nM |  |  | 
5 | CNC(=O)c1c(-c2ccc(F)cc2)oc2ccc(-c3cc(C(=O)NCC(C)C)ccc3OCCc3c(C)n[nH]c3C)cc12 | < 250 nM | < 250 nM |  |  | 
6 | CNC(=O)c1c(-c2ccc(F)cc2)oc2ccc(-c3cc(C(=O)NC4(c5ccccn5)CC4)c(OC)cc3C)cc12 | < 250 nM | < 250 nM |  |  | 
7 | CNC(=O)c1c(-c2ccc(F)cc2)oc2ccc(-c3cccc(C(=O)Nc4ccccc4-c4ccccc4)c3)cc12 |  |  | 1000 to 10000 nM | < 250 nM | 
8 | CNC(=O)c1c(-c2ccc(F)cc2)oc2ccc(-c3cc(C(=O)NCC(C)C)ccc3OCCC3CCCCN3)cc12 (stereo not shown) | < 250 nM | < 250 nM |  |  | 
9 | CNC(=O)c1c(-c2ccc(F)cc2)oc2ccc(-c3cc(OCCn4ccnc4C)cc(C(=O)NCC(C)C)c3)cc12 | 1000 to 10000 nM | 1000 to 10000 nM |  |  | 
10 | CNC(=O)c1c(-c2ccc(F)cc2)oc2ccc(-c3cc(C(=O)NC4(c5ccccn5)CC4)ccc3Cl)cc12 [drawing 384] | < 250 nM | < 250 nM |  |  | 
11 | CNC(=O)c1c(-c2ccc(F)cc2)oc2ccc(-c3cccc(C(=O)Nc4ccccc4)c3)cc12 |  |  | < 250 nM | < 250 nM | 
12 | CNC(=O)c1c(-c2ccc(F)cc2)oc2ccc(-c3cccc(C(=O)Nc4ccc(O)nc4)c3)cc12 |  |  | 1000 to 10000 nM | 1000 to 10000 nM | 
13 | CNC(=O)c1c(-c2ccc(F)cc2)oc2ccc(-c3cccc(C(=O)NC(C)c4ccc(F)cc4)c3)cc12 (stereo not shown) |  |  | < 250 nM | < 250 nM | 
14 | CNC(=O)c1c(-c2ccc(F)cc2)oc2ccc(-c3c(C)ccc(C(=O)NC4(c5ccccn5)CC4)c3F)cc12 | < 20 nM | < 250 nM |  |  | 
15 | CNC(=O)c1c(-c2ccc(F)cc2)oc2ccc(-c3cccc(C(=O)N[C@@H](CO)C(C)(C)C)c3)cc12 |  |  | 1000 to 10000 nM | 1000 to 10000 nM | 
16 | CNC(=O)c1c(-c2ccc(F)cc2)oc2ccc(-c3cc(C(=O)NC4(c5nnc(C)[nH]5)CC4)ccc3C)cc12 | < 250 nM | < 250 nM |  |  | 
17 | CNC(=O)c1c(-c2ccc(F)cc2)oc2ccc(-c3cccc(C(=O)NC(C)(C)C(=O)NCC(F)F)c3)cc12 |  |  | < 250 nM | < 250 nM | 
18 | CNC(=O)c1c(-c2ccc(F)cc2)oc2ccc(-c3cnc(OC)nc3)cc12 |  |  | 1000 to 10000 nM | 1000 to 10000 nM | 
19 | CNC(=O)c1c(-c2ccc(F)cc2)oc2ccc(-c3cc(C(=O)NC4(c5noc(C)n5)CC4)ccc3C)cc12 | < 20 nM | < 250 nM |  |  | 
20 | CNC(=O)c1c(-c2ccc(F)cc2)oc2ccc(-c3cc(OCc4ccco4)cc(C(=O)NCC(C)C)c3)cc12 | 1000 to 10000 nM | 1000 to 10000 nM |  |  | 

Row | Compound | IC50 [1, 2] | EC50 (HCV replicon cells; [3]) | IC50 [1, 4] | EC50 (HCV replicon cells; [5]) | also measured
21 | CNC(=O)c1c(-c2ccc(F)cc2)oc2ccc(-c3cccc(C(=O)NC(C)c4cccnc4)c3)cc12 (stereo not shown) |  |  | < 250 nM | 250 to 1000 nM | 
22 | CNC(=O)c1c(-c2ccc(F)cc2)oc2ccc(-c3cccc(C(=O)Nc4ccncn4)c3)cc12 |  |  | 250 to 1000 nM | 250 to 1000 nM | 
23 | CNC(=O)c1c(-c2ccc(F)cc2)oc2ccc(-c3cccc(C(=O)Nc4cccc(C)c4)c3)cc12 |  |  | 250 to 1000 nM | 250 to 1000 nM | 
24 | CCCC[C@H](CO)NC(=O)c1cccc(-c2ccc3oc(-c4ccc(F)cc4)c(C(=O)NC)c3c2)c1 [drawing 614] |  |  |  |  | IC50 [1, 6]: 600 nM; EC50 (HCV replicon cells; [7]): 1260 nM
25 | CNC(=O)c1c(-c2ccc(F)cc2)oc2ccc(-c3ccc(F)c(C(=O)NC(C)(C)C)c3)cc12 | < 250 nM | < 250 nM |  |  | 
26 | CNC(=O)c1c(-c2ccc(F)cc2)oc2ccc(-c3ccc(F)cc3CN)cc12 |  |  | > 10000 nM | > 10000 nM | 
27 | CNC(=O)c1c(-c2ccc(F)cc2)oc2ccc(-c3cc(OC(C)C)cc(C(=O)NCC(C)C)c3)cc12 | 1000 to 10000 nM | > 10000 nM |  |  | 
28 | CNC(=O)c1c(-c2ccc(F)cc2)oc2ccc(-c3cc(C(=O)NC4(c5ccccn5)CC4)cc(O)c3C)cc12 | < 250 nM | < 250 nM |  |  | 
29 | CNC(=O)c1c(-c2ccc(F)cc2)oc2cc(NS(C)(=O)=O)c(-c3cccc(C(=O)NC(C)(C)c4ccccc4)c3)cc12 |  |  | < 250 nM | < 250 nM | 
30 | CNC(=O)c1c(-c2ccc(F)cc2)oc2ccc(-c3cc(C(=O)NCC(C)C)ccc3OCC3CCCN3)cc12 (stereo not shown) | < 250 nM | 250 to 1000 nM |  |  | 
31 | CNC(=O)c1c(-c2ccc(F)cc2)oc2ccc(-c3cc(C(=O)NCC(C)C)ccc3OCCCN3CCOCC3)cc12 | < 250 nM | < 250 nM |  |  | 
32 | CNC(=O)c1c(-c2ccc(F)cc2)oc2ccc(-c3cccc(C(=O)N4CC[C@H](NC(C)=O)C4)c3)cc12 [drawing 622] |  |  |  |  | IC50 [1, 6]: 7130 nM; EC50 (HCV replicon cells; [7]): 16100 nM
33 | CCC(C)(C)NC(=O)c1cccc(-c2ccc3oc(-c4ccc(F)cc4)c(C(=O)NC)c3c2)c1 |  |  | < 250 nM | < 250 nM | 
34 | CNC(=O)c1c(-c2ccc(F)cc2)oc2ccc(-c3cc(C(=O)NC4(C#N)CC4)ccc3C)cc12 | < 250 nM | < 250 nM |  |  | 
35 | CNC(=O)c1c(-c2ccc(F)cc2)oc2ccc(-c3cc(C(=O)NCC(C)C)ccc3OCCN)cc12 | < 250 nM | < 250 nM |  |  | 
36 | CNC(=O)c1c(-c2ccc(F)cc2)oc2ccc(-c3cc(C(=O)NC(C)(C)c4ccccc4)ccc3OC)cc12 [drawing 608] |  |  |  |  | IC50 [1, 6]: 9.65 nM; EC50 (HCV replicon cells; [7]): 3.04 nM
37 | CCN(Cc1ccncc1)C(=O)c1ccc(-c2ccc3oc(-c4ccc(F)cc4)c(C(=O)NC)c3c2)cc1 |  |  | > 10000 nM | 1000 to 10000 nM | 
38 | CNC(=O)c1c(-c2ccc(F)cc2)oc2ccc(-c3cc(C(=O)NC4(c5ncccn5)CC4)c(OC)cc3C)c(F)c12 | < 250 nM | < 250 nM |  |  | 
39 | CNC(=O)c1c(-c2ccc(F)cc2)oc2ccc(-c3cccc(C(=O)N[C@@H](CO)c4ccccc4)c3)cc12 |  |  | 250 to 1000 nM | 1000 to 10000 nM | 
40 | CNC(=O)c1c(-c2ccc(F)cc2)oc2ccc(-c3cc(C(=O)NC4(c5ncccn5)CC4)ccc3C)cc12 [drawing 570] | < 250 nM | < 250 nM |  |  | 

Row | Compound | IC50 [1, 2] | EC50 (HCV replicon cells; [3]) | IC50 [1, 4] | EC50 (HCV replicon cells; [5]) | also measured
41 | CNC(=O)c1c(-c2ccc(F)cc2)oc2ccc(-c3cccc(C(=O)N[C@H]4CCC[C@H]4C(N)=O)c3)cc12 |  |  | 250 to 1000 nM | 250 to 1000 nM | 
42 | CNC(=O)c1c(-c2ccc(F)cc2)oc2ccc(-c3ccc(OC4CCCCO4)cc3)cc12 (stereo not shown) |  |  | > 10000 nM | 1000 to 10000 nM | 
43 | CNC(=O)c1c(-c2ccc(F)cc2)oc2ccc(-c3cccc(C(=O)N(C)c4ccncc4)c3)cc12 |  |  | 1000 to 10000 nM | > 10000 nM | 
44 | CNC(=O)c1c(-c2ccc(F)cc2)oc2ccc(-c3ccc(C(=O)N(C)CC(=O)N(C)C)cc3)cc12 |  |  | > 10000 nM | > 10000 nM | 
45 | CNC(=O)c1c(-c2ccc(F)cc2)oc2ccc(-c3cccc(S(=O)(=O)NC)c3)cc12 |  |  | > 10000 nM | > 3700 nM | 
46 | CNC(=O)c1c(-c2ccc(F)cc2)oc2ccc(-c3cccc(C(=O)Nc4ccon4)c3)cc12 |  |  | 250 to 1000 nM | 1000 to 10000 nM | 
47 | CNC(=O)c1c(-c2ccc(F)cc2)oc2ccc(-c3cccc(C(=O)NC(C)(C)c4ccccc4)c3)c([N+](=O)[O-])c12 |  |  | < 250 nM | < 250 nM | 
48 | CNC(=O)c1c(-c2ccc(F)cc2)oc2ccc(-c3cccc(C(=O)NC(C)c4ccccc4)c3)cc12 (stereo not shown) |  |  | < 250 nM | < 250 nM | 
49 | CNC(=O)c1c(-c2ccc(F)cc2)oc2ccc(-c3cc(C(=O)NC4(c5ccc(F)cc5)CC4)ccc3C)cc12 | < 250 nM | < 250 nM |  |  | 
50 | CNC(=O)c1c(-c2ccc(F)cc2)oc2cc(NC(=O)COC)c(-c3cccc(C(=O)NC4(c5ccccc5)CC4)c3)cc12 |  |  | 250 to 1000 nM | 250 to 1000 nM | 
51 | CNC(=O)c1c(-c2ccc(F)cc2)oc2ccc(-c3cccc(C(=O)NC(C)(C)c4ccccc4)c3)cc12 |  |  | < 250 nM | < 250 nM | 
52 | CNC(=O)c1c(-c2ccc(F)cc2)oc2ccc(-c3cccc(C(=O)NCc4cccnc4)c3)cc12 |  |  | < 250 nM | 250 to 1000 nM | 
53 | CNC(=O)c1c(-c2ccc(F)cc2)oc2ccc(-c3cc(C(=O)N4CCC5(CC4)OCc4ccccc45)ccc3Cl)cc12 | 1000 to 10000 nM | 1000 to 10000 nM |  |  | 
54 | CNC(=O)c1ccc(-c2ccc(-c3ccc4oc(-c5ccc(F)cc5)c(C(=O)NC)c4c3)cc2C(=O)NCC(C)C)cn1 | > 10000 nM | > 10000 nM |  |  | 
55 | CCC(NC(=O)c1ccc(F)c(-c2cc3c(C(=O)NC)c(-c4ccc(F)cc4)oc3cc2NS(C)(=O)=O)c1)c1ccccc1 (stereo not shown) | < 250 nM | < 250 nM |  |  | 
56 | CNC(=O)c1c(-c2ccc(F)cc2)oc2ccc(-c3cc(C(=O)NCC(C)C)ccc3OC3CCC3)cc12 |  |  | > 1390 nM | 250 to 1000 nM | 
57 | CNC(=O)c1c(-c2ccc(F)cc2)oc2ccc(-c3cc(C(=O)NC4(c5ccccn5)CC4)c(F)cc3Cl)cc12 | < 250 nM | < 250 nM |  |  | 
58 | CNC(=O)c1c(-c2ccc(F)cc2)oc2ccc(-c3cccc(C(=O)NC4CN5CCC4CC5)c3)cc12 (stereo not shown) |  |  |  |  | IC50 [1]: 1000 to 10000 nM; EC50 (HCV replicon cells): 1000 to 10000 nM
59 | CNC(=O)c1c(-c2ccc(F)cc2)oc2ccc(-c3ccc(-c4cccnc4OC)c(C(=O)NCC(C)C)c3)cc12 | < 250 nM | < 250 nM |  |  | 
